From ChEMBL document CHEMBL1201862, “PubChem BioAssay data set” (2004) come the findings set out here.

For assay [1], the target named is Peroxisome proliferator-activated receptor gamma/Nuclear receptor corepressor 2 (Homo sapiens, UniProt P37231+Q9Y618). Put plainly: Counterscreen for NR2E3 inverse agonists: TR-FRET-based biochemical high throughput dose response assay to identify inverse agonists of the interaction between peroxisome proliferator-activated receptor gamma (PPARg) and nuclear receptor co-repressor 2 (NCOR2). It counts as functional.

Assay [2] has as its target Cytochrome P450 3A4 (Homo sapiens, UniProt P08684).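 Also: CYP3A4 tested as one member of a cytochrome P450 panel screen.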
Assay [3] deals with T1, Cytochrome P450 1A2 (Homo sapiens, UniProt P05177).
T1 sequence (P05177 whole entry): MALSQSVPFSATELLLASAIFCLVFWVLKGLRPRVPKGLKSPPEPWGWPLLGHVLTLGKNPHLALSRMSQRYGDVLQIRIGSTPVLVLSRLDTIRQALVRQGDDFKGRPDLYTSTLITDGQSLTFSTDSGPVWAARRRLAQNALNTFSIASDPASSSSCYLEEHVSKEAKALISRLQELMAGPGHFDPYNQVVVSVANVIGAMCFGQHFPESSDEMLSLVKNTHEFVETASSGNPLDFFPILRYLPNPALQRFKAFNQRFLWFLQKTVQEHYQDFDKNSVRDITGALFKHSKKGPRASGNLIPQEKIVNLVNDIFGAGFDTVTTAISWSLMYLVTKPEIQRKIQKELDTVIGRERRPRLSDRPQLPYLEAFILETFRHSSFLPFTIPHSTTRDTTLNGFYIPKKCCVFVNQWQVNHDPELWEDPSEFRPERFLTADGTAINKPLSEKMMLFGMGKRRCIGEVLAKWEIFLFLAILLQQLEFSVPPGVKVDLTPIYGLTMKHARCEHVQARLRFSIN

The target of assay [4] is Photoreceptor-specific nuclear receptor (Homo sapiens, UniProt Q9Y5X4). The assay can be described thus: NR2E3 inverse agonists, dose response, biochemical, TR-FRET (AID 463256). Format: functional.
Assay [5] deals with 26S proteasome non-ATPase regulatory subunit 14 (Homo sapiens, UniProt O00487). Put plainly: inhibition of proteasome subunit RPN11 – biochemical, fluorescence polarization, uHTS hits, confirmation (AID 602368). It counts as functional.
The target in assay [6] is Prothrombin (Bos taurus, UniProt P00735). The assay can be described thus: thrombin inhibition, dose response, biochemical, fluorescence polarization, uHTS hits (AID 602369). It counts as functional.
The nature of assay [7]: yeast RAM network inhibitors, dose response, S. cerevisiae (AID 1307). It counts as functional.
Assay [8] addresses Peroxisome proliferator-activated receptor gamma/Nuclear receptor coactivator 3 (Homo sapiens, UniProt P37231). The assay can be described thus: TR-FRET dose response biochemical High Throughput Screening assay for agonists of the steroid receptor coactivator 3 (SRC-3) recruitment by the peroxisome proliferator-activated receptor gamma (PPAR gamma): non-selective agonists. [Related pubchem assays: 1301 (Confirmation screen.), 1048 (Primary screen.)]. Format: functional.

In assay [9] the target is 72 kDa type IV collagenase (Homo sapiens, UniProt P08253). Put plainly: Dose Response validation of uHTS RPN11 inhibitor hits using a MMP-2 Fluorescence assay. Format: functional.
Assay [10] concerns the target Peroxisome proliferator-activated receptor gamma/Nuclear receptor coactivator 1 (Homo sapiens, UniProt P37231). Put plainly: TR-FRET dose response biochemical High Throughput Screening assay for agonists of the steroid receptor coactivator 1 (SRC-1) recruitment by the peroxisome proliferator-activated receptor gamma (PPAR gamma): non-selective agonists. [Related pubchem assays (depositor defined):AID1300, AID1808, AID504735, AID631]. Format: protein assay.

For assay [11], the target named is Nonstructural protein 1 (Influenza A virus, UniProt Q194T2). Format: functional, Influenza A virus (A/California/07/2009(H1N1)).
The target of assay [12] is Peroxisome proliferator-activated receptor gamma/Nuclear receptor coactivator 2 (Homo sapiens, UniProt P37231). The assay can be described thus: TR-FRET dose response biochemical High Throughput Screening assay for agonists of the steroid receptor coactivator 2 (SRC-2) recruitment by the peroxisome proliferator-activated receptor gamma (PPAR gamma): non-selective agonists. [Related pubchem assays: 1297, 1032 ]. Format: functional.

Assay [13] has as its target Bcl-2-like protein 1 (Homo sapiens, UniProt Q07817). The assay can be described thus: BCL-XL inhibitors, dose response, selectivity assay for MCL1 inhibitor project, biochemical, fluorescence polarization, 1536-well (AID 2218).
For assay [14], the target named is Induced myeloid leukemia cell differentiation protein Mcl-1 (Homo sapiens, UniProt Q07820). The assay can be described thus: MCL1-BIM BH3 interaction inhibitors, dose response, biochemical, fluorescence polarization, BIM-BH3 peptide, 1536-well (AID 2217).
For assay [15], the target named is Genome polyprotein (dengue virus type 2, UniProt P29990). Put plainly: Dengue-2 NS5 methyltransferase inhibitors, primary screen, biochemical, confirmation dose response (AID 588689). Format: functional.
For assay [16], the target named is NADPH oxidase 1 (Homo sapiens, UniProt Q9Y5S8). It counts as functional, cell-based.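 Also: Cell-based assay with luminescence read-out, IC50 derived from inhibitor dose-response curves; intracellular ROS from endogenous NOX1 in intact HT29 colon cancer cells; potency of inhibitors that lower the ROS luminescence signal.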

Calls of active or inactive are those of the source. Some results are limits rather than exact numbers.

Sequence of Induced myeloid leukemia cell differentiation protein Mcl-1 (Q07820 whole entry): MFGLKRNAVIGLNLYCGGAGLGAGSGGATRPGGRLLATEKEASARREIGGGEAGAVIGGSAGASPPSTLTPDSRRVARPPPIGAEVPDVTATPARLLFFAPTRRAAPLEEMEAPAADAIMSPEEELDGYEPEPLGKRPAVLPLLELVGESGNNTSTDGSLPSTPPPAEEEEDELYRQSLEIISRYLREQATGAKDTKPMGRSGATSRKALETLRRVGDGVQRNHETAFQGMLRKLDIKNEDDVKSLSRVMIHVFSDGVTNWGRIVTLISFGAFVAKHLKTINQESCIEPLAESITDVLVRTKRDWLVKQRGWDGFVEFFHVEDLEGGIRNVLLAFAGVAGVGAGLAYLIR
Sequence of Cytochrome P450 3A4 (P08684 whole entry): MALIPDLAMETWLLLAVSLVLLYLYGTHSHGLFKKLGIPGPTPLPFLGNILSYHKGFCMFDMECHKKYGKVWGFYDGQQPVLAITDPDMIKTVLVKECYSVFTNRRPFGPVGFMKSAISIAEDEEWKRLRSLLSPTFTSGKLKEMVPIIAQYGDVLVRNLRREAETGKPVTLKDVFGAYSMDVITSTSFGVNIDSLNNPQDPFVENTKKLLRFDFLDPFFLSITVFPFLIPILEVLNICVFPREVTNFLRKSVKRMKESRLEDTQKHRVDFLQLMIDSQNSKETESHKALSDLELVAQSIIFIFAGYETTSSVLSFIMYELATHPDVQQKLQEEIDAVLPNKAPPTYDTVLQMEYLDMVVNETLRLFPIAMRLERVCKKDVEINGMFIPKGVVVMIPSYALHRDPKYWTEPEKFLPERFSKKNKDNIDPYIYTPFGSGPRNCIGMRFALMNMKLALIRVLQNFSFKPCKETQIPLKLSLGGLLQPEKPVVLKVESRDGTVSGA
Sequence of NADPH oxidase 1 (Q9Y5S8 whole entry): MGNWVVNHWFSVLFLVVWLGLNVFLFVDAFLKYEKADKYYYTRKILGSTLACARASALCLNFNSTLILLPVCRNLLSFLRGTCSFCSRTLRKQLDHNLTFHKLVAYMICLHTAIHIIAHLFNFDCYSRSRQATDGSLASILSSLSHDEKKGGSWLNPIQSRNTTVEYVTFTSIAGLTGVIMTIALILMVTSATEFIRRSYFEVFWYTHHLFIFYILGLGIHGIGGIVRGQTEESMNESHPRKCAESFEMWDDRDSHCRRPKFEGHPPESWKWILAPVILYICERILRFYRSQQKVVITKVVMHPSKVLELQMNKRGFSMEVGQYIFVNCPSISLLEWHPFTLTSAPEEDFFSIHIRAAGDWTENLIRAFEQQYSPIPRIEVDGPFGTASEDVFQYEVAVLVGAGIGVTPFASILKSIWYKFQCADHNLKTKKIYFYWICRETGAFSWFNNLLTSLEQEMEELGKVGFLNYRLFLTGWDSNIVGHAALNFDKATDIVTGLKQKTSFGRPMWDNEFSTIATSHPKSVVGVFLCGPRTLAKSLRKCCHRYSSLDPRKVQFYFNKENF
Sequence of 72 kDa type IV collagenase (P08253 whole entry): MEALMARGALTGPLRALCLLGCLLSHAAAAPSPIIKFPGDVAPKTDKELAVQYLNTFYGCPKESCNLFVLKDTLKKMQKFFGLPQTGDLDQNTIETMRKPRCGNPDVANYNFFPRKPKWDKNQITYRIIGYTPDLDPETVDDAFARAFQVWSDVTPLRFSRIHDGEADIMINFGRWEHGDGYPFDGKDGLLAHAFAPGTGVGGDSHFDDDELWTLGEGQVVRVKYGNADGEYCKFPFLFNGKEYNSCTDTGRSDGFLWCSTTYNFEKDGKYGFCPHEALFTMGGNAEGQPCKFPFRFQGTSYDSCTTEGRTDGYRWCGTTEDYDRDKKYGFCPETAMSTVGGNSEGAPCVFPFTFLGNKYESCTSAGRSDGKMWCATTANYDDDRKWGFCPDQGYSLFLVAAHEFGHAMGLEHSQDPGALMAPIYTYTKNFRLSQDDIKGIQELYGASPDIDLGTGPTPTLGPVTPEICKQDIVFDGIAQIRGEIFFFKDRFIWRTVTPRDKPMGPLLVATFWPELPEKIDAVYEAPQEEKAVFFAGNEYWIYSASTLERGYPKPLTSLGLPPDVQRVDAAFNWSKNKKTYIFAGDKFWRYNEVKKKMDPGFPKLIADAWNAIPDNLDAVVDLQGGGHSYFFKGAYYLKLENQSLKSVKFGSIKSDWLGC
Sequence of Photoreceptor-specific nuclear receptor (Q9Y5X4 whole entry): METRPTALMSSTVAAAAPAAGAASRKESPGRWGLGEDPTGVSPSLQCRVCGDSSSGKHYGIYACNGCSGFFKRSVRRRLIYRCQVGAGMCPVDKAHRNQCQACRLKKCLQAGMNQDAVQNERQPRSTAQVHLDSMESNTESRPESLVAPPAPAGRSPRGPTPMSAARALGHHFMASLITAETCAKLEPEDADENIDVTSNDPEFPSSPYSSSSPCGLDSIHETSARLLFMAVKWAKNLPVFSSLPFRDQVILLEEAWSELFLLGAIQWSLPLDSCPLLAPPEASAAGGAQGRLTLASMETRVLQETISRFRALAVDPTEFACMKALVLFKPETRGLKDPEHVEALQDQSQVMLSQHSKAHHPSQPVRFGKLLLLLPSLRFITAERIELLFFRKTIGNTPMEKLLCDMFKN
Sequence of Genome polyprotein (P29990 2492-3391 limits assumed): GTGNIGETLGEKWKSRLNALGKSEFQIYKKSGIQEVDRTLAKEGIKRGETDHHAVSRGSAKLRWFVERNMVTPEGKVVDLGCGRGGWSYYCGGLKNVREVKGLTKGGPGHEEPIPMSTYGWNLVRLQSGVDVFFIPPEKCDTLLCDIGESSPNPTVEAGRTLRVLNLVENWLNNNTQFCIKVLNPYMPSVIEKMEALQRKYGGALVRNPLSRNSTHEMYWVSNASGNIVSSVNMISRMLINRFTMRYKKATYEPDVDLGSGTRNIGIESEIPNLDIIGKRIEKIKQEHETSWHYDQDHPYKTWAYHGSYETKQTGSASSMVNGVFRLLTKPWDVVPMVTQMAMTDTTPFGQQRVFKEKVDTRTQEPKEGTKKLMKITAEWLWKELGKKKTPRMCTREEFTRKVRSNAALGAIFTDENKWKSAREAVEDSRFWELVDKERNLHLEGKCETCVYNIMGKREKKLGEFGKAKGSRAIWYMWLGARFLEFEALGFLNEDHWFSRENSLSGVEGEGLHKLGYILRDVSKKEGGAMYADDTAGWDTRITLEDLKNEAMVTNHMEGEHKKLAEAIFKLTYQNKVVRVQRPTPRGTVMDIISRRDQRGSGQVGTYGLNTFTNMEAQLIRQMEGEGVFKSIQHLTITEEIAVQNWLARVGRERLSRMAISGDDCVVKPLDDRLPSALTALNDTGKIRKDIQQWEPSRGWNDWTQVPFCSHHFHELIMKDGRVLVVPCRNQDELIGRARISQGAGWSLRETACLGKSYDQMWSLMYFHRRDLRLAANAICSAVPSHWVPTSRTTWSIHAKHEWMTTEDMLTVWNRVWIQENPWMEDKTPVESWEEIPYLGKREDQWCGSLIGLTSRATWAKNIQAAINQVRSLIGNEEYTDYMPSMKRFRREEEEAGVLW
Sequence of Bcl-2-like protein 1 (Q07817 whole entry): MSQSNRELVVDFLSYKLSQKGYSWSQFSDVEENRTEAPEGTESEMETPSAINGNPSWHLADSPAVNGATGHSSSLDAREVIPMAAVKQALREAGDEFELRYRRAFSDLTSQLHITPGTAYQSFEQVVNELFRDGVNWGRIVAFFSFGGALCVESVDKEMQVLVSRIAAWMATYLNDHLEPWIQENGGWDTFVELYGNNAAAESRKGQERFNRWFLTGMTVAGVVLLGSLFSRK
Sequence of Nonstructural protein 1 (Q194T2 whole entry): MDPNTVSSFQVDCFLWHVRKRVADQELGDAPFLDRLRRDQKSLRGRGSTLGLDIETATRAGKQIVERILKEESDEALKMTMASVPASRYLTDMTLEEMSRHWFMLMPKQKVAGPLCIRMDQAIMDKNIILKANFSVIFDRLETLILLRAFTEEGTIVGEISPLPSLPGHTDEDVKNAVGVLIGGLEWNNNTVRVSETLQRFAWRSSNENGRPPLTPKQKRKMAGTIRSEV
Sequence of 26S proteasome non-ATPase regulatory subunit 14 (O00487 whole entry): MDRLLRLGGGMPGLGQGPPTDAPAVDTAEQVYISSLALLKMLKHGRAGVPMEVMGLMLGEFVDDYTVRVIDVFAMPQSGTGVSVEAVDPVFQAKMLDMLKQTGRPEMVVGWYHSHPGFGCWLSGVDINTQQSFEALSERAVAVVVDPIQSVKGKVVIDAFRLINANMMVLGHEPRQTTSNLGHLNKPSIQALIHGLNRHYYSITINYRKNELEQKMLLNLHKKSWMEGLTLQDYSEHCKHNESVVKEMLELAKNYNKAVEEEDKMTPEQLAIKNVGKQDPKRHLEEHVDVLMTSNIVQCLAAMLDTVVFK

With `COc1ccc(N2C(=O)c3ccccc3NC2c2ccc(OC)c(CSc3ccccn3)c2)cc1` (stereo unspecified), the IC50 in assay [1] was 7.42 µM (active); in assay [4], 5.92 µM (active). Further, the AC50 is 1 µM (inconclusive) in assay [2] and 15.8 µM (inconclusive) in assay [3].

For `CN(C)c1ccc(/C=C/C=C2/C(=O)NC(=O)N(c3ccccc3)C2=O)cc1`, the concentration for half-maximal inhibition (IC50) in [5] was 28.2 µM (active); in assay [6], 19.6 µM (active); in assay [7], 317 µM (active); in [9], 71.2 µM (active); in assay [11], 12.1 µM (active). Besides, the EC50 in [8] was > 79.4 µM (not active); in assay [10], > 2.94 µM (inactive); in assay [12] it was 4.13 µM (active).

For the compound `CCc1sc(C(C2C(=O)CC(C)(C)CC2=O)C2C(=O)CC(C)(C)CC2=O)cc1[N+](=O)[O-]`, the figures for the IC50 in [13], in [14] and in assay [15] were > 109 µM (not active), 6.08 µM (active) and 16.4 µM (active), respectively.

Turning to `O=C(CCC(=O)Nc1ccccc1)Nc1ccccc1`, in [16], the IC50 was > 17 µM (not active).
